Test results reported in patent publication US4684664A, “Derivatives of β-(4-isocyano-1,2,3,4-diepoxycyclopentyl) acrylic acid” (Kureha Kagaku Kogyo Kabushiki Kaisha, priority 1984, dated 1987).
≈ marks a conversion by molar mass, not a printed value.

How the values were obtained:
Assay type in all cases: cell-based
[1] = system: Staphylococcus aureus FDA 209PJc-1; assay: Antibacterial activity, agar-dilution MIC, organism No. 1; details: Staphylococcus aureus, FDA209PJC1; Organism No. 1, bouillon-agar; read-out: Minimum Inhibitory Concentration
Summary of the method: (§1)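 Endpoint: MIC in μg/ml of culture medium. Method: agar dilution. Medium: bouillon agar.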

[2] = system: Staphylococcus aureus Terajima; assay: Antibacterial activity, agar-dilution MIC, organism No. 2; details: Staphylococcus aureus; Organism No. 2, bouillon-agar; read-out: Minimum Inhibitory Concentration
Summary of the method: as §1

[3] = system: Staphylococcus aureus MS 353; assay: Antibacterial activity, agar-dilution MIC, organism No. 3; details: Staphylococcus aureus, MS353; Organism No. 3, bouillon-agar; read-out: Minimum Inhibitory Concentration
Summary of the method: as §1

[4] = system: Streptococcus pyogenes Cook; assay: Antibacterial activity, agar-dilution MIC, organism No. 4; details: Streptococcus pyogenes; Organism No. 4, bouillon-agar; read-out: Minimum Inhibitory Concentration
Summary of the method: as §1

[5] = system: Escherichia coli NIHJ-JC-2; assay: Antibacterial activity, agar-dilution MIC, organism No. 5; details: Escherichia coli, NIHJJC2; Organism No. 5, bouillon-agar; read-out: Minimum Inhibitory Concentration
Summary of the method: as §1

[6] = system: Escherichia coli K12 C600 IAM 1264; assay: Antibacterial activity, agar-dilution MIC, organism No. 6; details: Escherichia coli, IAM1264; Organism No. 6, bouillon-agar; read-out: Minimum Inhibitory Concentration
Summary of the method: as §1

[7] = system: Klebsiella pneumoniae PCI-602; assay: Antibacterial activity, agar-dilution MIC, organism No. 7; details: Klebsiella pneumoniae, PCI602; Organism No. 7, bouillon-agar; read-out: Minimum Inhibitory Concentration
Summary of the method: as §1

[8] = system: Salmonella typhimurium IID 971; assay: Antibacterial activity, agar-dilution MIC, organism No. 8; details: Salmonella enterica; Organism No. 8, bouillon-agar; read-out: Minimum Inhibitory Concentration
Summary of the method: as §1

[9] = system: Salmonella typhi 901; assay: Antibacterial activity, agar-dilution MIC, organism No. 9; details: Salmonella enterica, TYPHI, read-out: Minimum Inhibitory Concentration
Summary of the method: as §1

[10] = system: Salmonella paratyphi-A 1015; assay: Antibacterial activity, agar-dilution MIC, organism No. 10; details: Salmonella enterica, PARATYPHI, read-out: Minimum Inhibitory Concentration
Summary of the method: as §1

[11] = system: Salmonella shottmuelleri 8006; assay: Antibacterial activity, agar-dilution MIC, organism No. 11; details: Salmonella, 8006; Organism No. 11, bouillon-agar; read-out: Minimum Inhibitory Concentration
Summary of the method: as §1

[12] = system: Salmonella enteritidis G 14; assay: Antibacterial activity, agar-dilution MIC, organism No. 12; details: Salmonella enterica, ENTERITIDIS; Organism No. 12, bouillon-agar; read-out: Minimum Inhibitory Concentration
Summary of the method: as §1

[13] = system: Serratia marcescens IAM 1184; assay: Antibacterial activity, agar-dilution MIC, organism No. 13; details: Serratia marcescens, IAM1184; Organism No. 13, bouillon-agar; read-out: Minimum Inhibitory Concentration
Summary of the method: as §1

[14] = system: Bacillus subtilis ATCC 6633; assay: Antibacterial activity, agar-dilution MIC, organism No. 14; details: Bacillus subtilis, ATCC6633; Organism No. 14, bouillon-agar; read-out: Minimum Inhibitory Concentration
Summary of the method: as §1

[15] = system: Pseudomonas aeruginosa IFO 3445; assay: Antibacterial activity, agar-dilution MIC, organism No. 15; details: Pseudomonas aeruginosa, IFO3445; Organism No. 15, bouillon-agar; read-out: Minimum Inhibitory Concentration
Summary of the method: as §1

[16] = system: Pseudomonas aeruginosa NCTC 10490; assay: Antibacterial activity, agar-dilution MIC, organism No. 16; details: Pseudomonas aeruginosa, NCTC10490; Organism No. 16, bouillon-agar; read-out: Minimum Inhibitory Concentration
Summary of the method: as §1

[17] = system: Pseudomonas aeruginosa PAO 1; assay: Antibacterial activity, agar-dilution MIC, organism No. 17; details: Pseudomonas aeruginosa, PAO1; Organism No. 17, bouillon-agar; read-out: Minimum Inhibitory Concentration
Summary of the method: as §1

[18] = system: Proteus morganii IFO 3848; assay: Antibacterial activity, agar-dilution MIC, organism No. 18; details: Morganella morganii, IFO3848; Organism No. 18, bouillon-agar; read-out: Minimum Inhibitory Concentration
Summary of the method: as §1

[19] = system: Proteus mirabilis IFO 3849; assay: Antibacterial activity, agar-dilution MIC, organism No. 19; details: Proteus mirabilis, IFO3849; Organism No. 19, bouillon-agar; read-out: Minimum Inhibitory Concentration
Summary of the method: as §1

[20] = system: Proteus vulgaris OX-19; assay: Antibacterial activity, agar-dilution MIC, organism No. 20; details: Proteus vulgaris, OX19; Organism No. 20, bouillon-agar; read-out: Minimum Inhibitory Concentration
Summary of the method: as §1

[21] = system: Proteus vulgaris HX-19; assay: Antibacterial activity, agar-dilution MIC, organism No. 21; details: Proteus vulgaris, HX19; Organism No. 21, bouillon-agar; read-out: Minimum Inhibitory Concentration
Summary of the method: as §1

[22] = system: Proteus rettgeri IFO 3850; assay: Antibacterial activity, agar-dilution MIC, organism No. 22; details: Providencia rettgeri, IFO3850; Organism No. 22, bouillon-agar; read-out: Minimum Inhibitory Concentration
Summary of the method: as §1

[23] = system: Enterobacter aerogenes ATCC 13048; assay: Antibacterial activity, agar-dilution MIC, organism No. 23; details: Klebsiella aerogenes, ATCC13048; Organism No. 23, bouillon-agar; read-out: Minimum Inhibitory Concentration
Summary of the method: as §1

[24] = system: Enterobacter cloacae 963; assay: Antibacterial activity, agar-dilution MIC, organism No. 24; details: Enterobacter cloacae, 963; Organism No. 24, bouillon-agar; read-out: Minimum Inhibitory Concentration
Summary of the method: as §1

[25] = system: Micrococcus luteus ATCC 9341; assay: Antibacterial activity, agar-dilution MIC, organism No. 25; details: Micrococcus luteus, ATCC9341; Organism No. 25, bouillon-agar; read-out: Minimum Inhibitory Concentration
Summary of the method: as §1

[26] = system: Streptococcus pyogenes IFO 3340; assay: Antibacterial activity, agar-dilution MIC, organism No. 26; details: Streptococcus pyogenes, IFO3340; Organism No. 26, bouillon-agar; read-out: Minimum Inhibitory Concentration
Summary of the method: as §1

[27] = system: Streptococcus faecium IFO 3826; assay: Antibacterial activity, agar-dilution MIC, organism No. 27; details: Enterococcus faecium, IFO3826; Organism No. 27, bouillon-agar; read-out: Minimum Inhibitory Concentration
Summary of the method: as §1

[28] = system: Mycoplasma pneumoniae IID817; assay: Antimycoplasmal activity, MIC by phenol red colour change, organism No. 28; details: Mycoplasma, IID817; Organism No. 28, PPLO broth + 1% glucose, 37° C.; read-out: Minimum Inhibitory Concentration (MIC)
Protocol: Mycoplasma pneumoniae IID817 was used as the test microorganism in a culture medium prepared by adding 1% of glucose to "PPLO broth (manufactured by Difco Co.) liquid culture medium" at 37° C. with phenol red as an indicator, thereby culturing the test microorganism.

[29] = system: Candida albicans IAM 4905; assay: Antifungal activity, agar-dilution MIC, organism No. 29; details: Candida albicans, IAM4905; Organism No. 29, bouillon-agar; read-out: Minimum Inhibitory Concentration
Summary of the method: as §1

[30] = system: Aspergillus niger IFO 6342; assay: Antifungal activity, agar-dilution MIC, organism No. 30; details: Aspergillus niger, IFO6342; Organism No. 30, bouillon-agar; read-out: Minimum Inhibitory Concentration
Summary of the method: as §1

Row | SMILES | MIC [1] [µg/mL] | MIC [2] [µg/mL] | MIC [3] [µg/mL] | MIC [4] [µg/mL] | MIC [5] [µg/mL] | MIC [6] [µg/mL] | MIC [7] [µg/mL] | MIC [8] [µg/mL] | MIC [9] [µg/mL] | MIC [10] [µg/mL] | MIC [11] [µg/mL] | MIC [12] [µg/mL] | MIC [13] [µg/mL] | MIC [14] [µg/mL] | MIC [15] [µg/mL] | MIC [16] [µg/mL] | MIC [17] [µg/mL] | MIC [18] [µg/mL] | MIC [19] [µg/mL] | MIC [20] [µg/mL] | other results
1 | [C-]#[N+]C12CC3(/C=C/C(=O)Nc4ccccc4C(N)=O)OC3C1O2 (stereo not drawn) [compound 62] | 12.5 (≈ 40.2 µM) | 50 (≈ 161 µM) | 12.5 (≈ 40.2 µM) | > 200 | > 200 | > 200 | 3.13 (≈ 10.1 µM) | 50 (≈ 161 µM) | 25 (≈ 80.3 µM) | 25 (≈ 80.3 µM) | 25 (≈ 80.3 µM) | 50 (≈ 161 µM) | > 200 | 25 (≈ 80.3 µM) | > 200 | > 200 | > 200 | 12.5 (≈ 40.2 µM) | > 200 | 3.13 (≈ 10.1 µM) | MIC [21]: 3.13 µg/mL (≈ 10.1 µM); MIC [22]: > 200 µg/mL; MIC [23]: > 200 µg/mL; MIC [24]: > 200 µg/mL; MIC [25]: 25 µg/mL (≈ 80.3 µM); MIC [26]: 6.25 µg/mL (≈ 20.1 µM); MIC [27]: > 200 µg/mL; MIC [28]: < 0.2 µg/mL; MIC [29]: 100 µg/mL (≈ 321 µM); MIC [30]: 100 µg/mL (≈ 321 µM)
2 | [C-]#[N+]C12CC3(/C=C/C(=O)Nc4cccc(N)c4)OC3C1O2 (stereo not drawn) [compound 60] | 3.13 (≈ 11 µM) | 12.5 (≈ 44.1 µM) | 3.13 (≈ 11 µM) | 25 (≈ 88.2 µM) | 25 (≈ 88.2 µM) | 25 (≈ 88.2 µM) | 1.56 (≈ 5.51 µM) | 12.5 (≈ 44.1 µM) | 3.13 (≈ 11 µM) | 3.13 (≈ 11 µM) | 3.13 (≈ 11 µM) | 6.25 (≈ 22.1 µM) | 200 (≈ 706 µM) | 12.5 (≈ 44.1 µM) | > 200 | > 200 | > 200 | 1.56 (≈ 5.51 µM) | > 200 | 0.39 (≈ 1.38 µM) | MIC [21]: 0.39 µg/mL (≈ 1.38 µM); MIC [22]: > 200 µg/mL; MIC [23]: > 200 µg/mL; MIC [24]: 200 µg/mL (≈ 706 µM); MIC [25]: 0.39 µg/mL (≈ 1.38 µM); MIC [26]: 3.13 µg/mL (≈ 11 µM); MIC [27]: 50 µg/mL (≈ 176 µM); MIC [28]: < 0.2 µg/mL; MIC [29]: 25 µg/mL (≈ 88.2 µM); MIC [30]: 100 µg/mL (≈ 353 µM)
3 | [C-]#[N+]C12CC3(/C=C/C(=O)Nc4ccccc4OC)OC3C1O2 (stereo not drawn) [compound 55] | 1.56 (≈ 5.23 µM) | 3.13 (≈ 10.5 µM) | 0.78 (≈ 2.61 µM) | 200 (≈ 670 µM) | 200 (≈ 670 µM) | 200 (≈ 670 µM) | 0.39 (≈ 1.31 µM) | 50 (≈ 168 µM) | 25 (≈ 83.8 µM) | 12.5 (≈ 41.9 µM) | 3.13 (≈ 10.5 µM) | 12.5 (≈ 41.9 µM) | > 200 | 25 (≈ 83.8 µM) | > 200 | > 200 | > 200 | 6.25 (≈ 21 µM) | > 200 | 6.25 (≈ 21 µM) | MIC [21]: < 0.05 µg/mL; MIC [22]: > 200 µg/mL; MIC [23]: > 200 µg/mL; MIC [24]: > 200 µg/mL; MIC [25]: < 0.05 µg/mL; MIC [26]: 6.25 µg/mL (≈ 21 µM); MIC [27]: 200 µg/mL (≈ 670 µM); MIC [28]: < 0.2 µg/mL; MIC [29]: 3.13 µg/mL (≈ 10.5 µM); MIC [30]: 12.5 µg/mL (≈ 41.9 µM)
